Laboratory results published in publication PMC11589570, “Critical assessment of LC3/GABARAP ligands used for degrader development and ligandability of LC3/GABARAP binding pockets” (Nature Communications, 2024).
Where “and” joins values, the source holds several entries; their conditions need not be identical. Identical values can stand only once.

Tests used:
Assay in all cases: FP assay with Cy5-labelled p62 LIR tracer (protein titration and tracer displacement)
LC3C = LC3C (Homo sapiens, UniProt Q9BXW4); type: binding; conditions: for normalized FP signal, p62 LIR tracer displacement: LC3C, listed as AN2; for compound titration LC3C (displacement curve, FP signal): two replicate columns per compound
Chain of LC3C (Q9BXW4 1-126): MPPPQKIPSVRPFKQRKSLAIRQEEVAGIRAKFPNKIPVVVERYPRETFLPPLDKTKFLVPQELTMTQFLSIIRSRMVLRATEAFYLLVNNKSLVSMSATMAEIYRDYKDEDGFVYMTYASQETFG

GABARAPL2 = GABARAPL2 (Homo sapiens, UniProt P60520); conditions: GABARAPL2
Chain of GABARAPL2 (P60520 whole entry): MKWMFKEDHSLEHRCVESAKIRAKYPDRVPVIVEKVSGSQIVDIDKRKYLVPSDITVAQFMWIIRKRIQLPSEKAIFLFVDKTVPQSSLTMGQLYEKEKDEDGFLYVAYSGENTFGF

GABARAP = GABARAP (Homo sapiens, UniProt O95166); type: binding; conditions: for normalized FP signal, p62 LIR tracer displacement: GABARAP; for compound titration GABARAP (displacement curve, FP signal): two replicate columns per compound
Chain of GABARAP (O95166 1-116): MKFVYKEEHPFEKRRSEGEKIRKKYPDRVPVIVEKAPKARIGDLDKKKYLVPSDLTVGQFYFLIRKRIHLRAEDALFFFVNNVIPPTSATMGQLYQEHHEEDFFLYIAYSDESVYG

[1] = log10 concentration [M] -3.82391
[2] = log10 concentration [M] -4.1549
[3] = log10 concentration [M] -4.60206
[4] = log10 concentration [M] -5.30103
[5] = log10 concentration [M] -5.69897
[6] = log10 concentration [M] -6.22185
[7] = log10 concentration [M] -6.69897
[8] = log10 concentration [M] -7.30103
[9] = log10 concentration [M] -7.79588
[10] = log10 concentration [M] -8.08092
[11] = log10 concentration [M] -3.82391, listed as AN2
[12] = log10 concentration [M] -4.1549, listed as AN2
[13] = log10 concentration [M] -4.60206, listed as AN2
[14] = log10 concentration [M] -5, listed as AN2
[15] = log10 concentration [M] -5.30103, listed as AN2
[16] = log10 concentration [M] -5.69897, listed as AN2
[17] = log10 concentration [M] -6.22185, listed as AN2
[18] = log10 concentration [M] -6.69897, listed as AN2
[19] = log10 concentration [M] -7.79588, listed as AN2
[20] = log10 concentration [M] -8.08092, listed as AN2

## O=c1cc(-c2ccccc2)c2c(O)cc(O)cc2o1 [compound 2]
LC3C; [1]
  normalized FP signal, p62 LIR tracer displacement: 84.2 and 87
  compound titration LC3C (displacement curve, FP signal): 84.2 and 87
LC3C; [2]
  normalized FP signal, p62 LIR tracer displacement: 90.8 and 97
  compound titration LC3C (displacement curve, FP signal): 90.8 and 97
LC3C; [3]
  normalized FP signal, p62 LIR tracer displacement: 92.6 and 96.6
  compound titration LC3C (displacement curve, FP signal): 92.6 and 96.6
LC3C; log10 concentration [M] -5
  normalized FP signal, p62 LIR tracer displacement: 91.6 and 99.8
  compound titration LC3C (displacement curve, FP signal): 91.6 and 99.8
LC3C; [4]
  normalized FP signal, p62 LIR tracer displacement: 95.6 and 98.4
  compound titration LC3C (displacement curve, FP signal): 95.6 and 98.4
LC3C; [5]
  normalized FP signal, p62 LIR tracer displacement: 90.8 and 90.6
  compound titration LC3C (displacement curve, FP signal): 90.8 and 90.6
LC3C; [6]
  normalized FP signal, p62 LIR tracer displacement: 97.2 and 95.2
  compound titration LC3C (displacement curve, FP signal): 97.2 and 95.2
LC3C; [7]
  normalized FP signal, p62 LIR tracer displacement: 99.8 and 97.8
  compound titration LC3C (displacement curve, FP signal): 99.8 and 97.8
LC3C; [8]
  normalized FP signal, p62 LIR tracer displacement: 98 and 96.2
  compound titration LC3C (displacement curve, FP signal): 98 and 96.2
LC3C; [9]
  normalized FP signal, p62 LIR tracer displacement: 91.6 and 93.8
  compound titration LC3C (displacement curve, FP signal): 91.6 and 93.8
LC3C; [10]
  normalized FP signal, p62 LIR tracer displacement: 99 and 100.4
  compound titration LC3C (displacement curve, FP signal): 99 and 100.4
GABARAPL2; [11]
  normalized FP signal, p62 LIR tracer displacement: 88.4 and 85.2
GABARAPL2; [12]
  normalized FP signal, p62 LIR tracer displacement: 94.4 and 106.4
GABARAPL2; [3]
  normalized FP signal, p62 LIR tracer displacement: 106
GABARAPL2; [13]
  normalized FP signal, p62 LIR tracer displacement: 104.4
GABARAPL2; [14]
  normalized FP signal, p62 LIR tracer displacement: 98 and 106.4
GABARAPL2; [15]
  normalized FP signal, p62 LIR tracer displacement: 104 and 108.8
GABARAPL2; [16]
  normalized FP signal, p62 LIR tracer displacement: 92.8 and 98.4
GABARAPL2; [17]
  normalized FP signal, p62 LIR tracer displacement: 104 and 94.4
GABARAPL2; [7]
  normalized FP signal, p62 LIR tracer displacement: 100
GABARAPL2; [18]
  normalized FP signal, p62 LIR tracer displacement: 104.4
GABARAPL2; [8]
  normalized FP signal, p62 LIR tracer displacement: 116.4
GABARAPL2; log10 concentration [M] -7.30103, listed as AN2
  normalized FP signal, p62 LIR tracer displacement: 100.8
GABARAPL2; [19]
  normalized FP signal, p62 LIR tracer displacement: 103.2 and 104
GABARAPL2; [10]
  normalized FP signal, p62 LIR tracer displacement: 105.2
GABARAPL2; [20]
  normalized FP signal, p62 LIR tracer displacement: 104.4
GABARAP; [11]
  normalized FP signal, p62 LIR tracer displacement: 92.5862 and 91.2069
GABARAP; [12]
  normalized FP signal, p62 LIR tracer displacement: 93.9655 and 97.069
GABARAP; [13]
  normalized FP signal, p62 LIR tracer displacement: 97.069 and 101.207
GABARAP; [14]
  normalized FP signal, p62 LIR tracer displacement: 96.5517 and 105.172
GABARAP; [15]
  normalized FP signal, p62 LIR tracer displacement: 96.8966 and 99.8276
GABARAP; [16]
  normalized FP signal, p62 LIR tracer displacement: 95.5172 and 91.0345
GABARAP; [17]
  normalized FP signal, p62 LIR tracer displacement: 96.2069 and 97.7586
GABARAP; [18]
  normalized FP signal, p62 LIR tracer displacement: 98.1034 and 96.7241
GABARAP; [8]
  normalized FP signal, p62 LIR tracer displacement: 99.8276
  compound titration GABARAP (displacement curve, FP signal): 99.8276
GABARAP; [19]
  normalized FP signal, p62 LIR tracer displacement: 98.1034 and 97.931
GABARAP; [10]
  normalized FP signal, p62 LIR tracer displacement: 97.5862
GABARAP; [20]
  normalized FP signal, p62 LIR tracer displacement: 104.655
GABARAP; [1]
  compound titration GABARAP (displacement curve, FP signal): 92.5862 and 91.2069
GABARAP; [2]
  compound titration GABARAP (displacement curve, FP signal): 93.9655 and 97.069
GABARAP; [3]
  compound titration GABARAP (displacement curve, FP signal): 97.069 and 101.207
GABARAP; log10 concentration [M] -5
  compound titration GABARAP (displacement curve, FP signal): 96.5517 and 105.172
GABARAP; [4]
  compound titration GABARAP (displacement curve, FP signal): 96.8966 and 99.8276
GABARAP; [5]
  compound titration GABARAP (displacement curve, FP signal): 95.5172 and 91.0345
GABARAP; [6]
  compound titration GABARAP (displacement curve, FP signal): 96.2069 and 97.7586
GABARAP; [7]
  compound titration GABARAP (displacement curve, FP signal): 98.1034 and 96.7241
